We go through 1 compound from paper PMC9150076 (Journal of Medicinal Chemistry, 2022).

The subject of series [1] is PDAC2 primary cell culture. Briefly: Growth inhibition, SRB assay, PDAC2. The format is cell-based. The following applies: Homo sapiens, PDAC-2, PDAC2, 72 h, read-out: IC50 antiproliferative activity.
The next series has as its system PDAC3 cells. Briefly: Wound-healing/migration assay, PDAC3. It is filed as cell-based, human. Conditions: PDAC3, 20 h, drug at 5× IC50; control 59 ± 8%.
Series [2] concerns immortalized ductal normal cells HPNE. Briefly: Growth inhibition, SRB assay, HPNE normal cells. It is filed as cell-based, human. The following applies: 72 h.
The target of a further series is FAAH (Mus musculus, UniProt O08914). It is filed as biochemical.
Sequence of FAAH (O08914 whole entry): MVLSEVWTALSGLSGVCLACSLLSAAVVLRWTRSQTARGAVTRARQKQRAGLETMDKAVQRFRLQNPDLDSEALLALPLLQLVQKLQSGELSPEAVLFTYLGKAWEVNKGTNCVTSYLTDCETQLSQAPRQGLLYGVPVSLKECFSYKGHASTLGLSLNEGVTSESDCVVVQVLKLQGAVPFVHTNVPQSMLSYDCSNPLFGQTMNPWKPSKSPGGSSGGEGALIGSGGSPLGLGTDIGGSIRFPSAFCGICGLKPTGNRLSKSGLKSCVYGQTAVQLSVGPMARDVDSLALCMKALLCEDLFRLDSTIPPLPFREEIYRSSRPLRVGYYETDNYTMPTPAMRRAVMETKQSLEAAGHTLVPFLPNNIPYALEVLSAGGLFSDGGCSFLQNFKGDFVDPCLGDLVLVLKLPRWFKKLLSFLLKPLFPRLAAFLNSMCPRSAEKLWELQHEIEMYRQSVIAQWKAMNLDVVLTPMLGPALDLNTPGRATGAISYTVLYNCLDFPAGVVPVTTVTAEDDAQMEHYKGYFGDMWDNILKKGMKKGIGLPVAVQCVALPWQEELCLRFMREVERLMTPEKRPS
A short description of series [3]: Stability test in human plasma. The format is in vitro ADME. The following applies: 37 °C. The protocol:
The incubation mixture (total volume of […]) was constituted by the following components: pooled human plasma (1.5 mL, 55.7 mg protein/mL),[65] HEPES buffer (1.4 mL, 25 mM, 140 mM NaCl pH 7.4), and 100 μL of each compound in DMSO (3.0 mM). The solution was mixed in a test tube that was incubated at 37 °C. At set time points (0.0, 0.25, 0.50, 1.0, 2.0, 4.0, 8.0, and 24.0 h), samples of 100 μL were taken, mixed with 400 μL of cold acetonitrile, and centrifuged at 5000 rpm for 15 min.[66] The supernatant was removed and analyzed by UV/LC–MS. For each compound, the determination was performed in three independent experiments.

Series [4] has as its system active caspase-3 in PDAC3 cells. Briefly: Active caspase-3 immunoassay, PDAC3. The format is cell-based, human. Conditions: PDAC3, compared to untreated cells.
The target of the next series is ABHD6 (Mus musculus, UniProt Q8R2Y0).
Sequence of ABHD6 (Q8R2Y0 whole entry): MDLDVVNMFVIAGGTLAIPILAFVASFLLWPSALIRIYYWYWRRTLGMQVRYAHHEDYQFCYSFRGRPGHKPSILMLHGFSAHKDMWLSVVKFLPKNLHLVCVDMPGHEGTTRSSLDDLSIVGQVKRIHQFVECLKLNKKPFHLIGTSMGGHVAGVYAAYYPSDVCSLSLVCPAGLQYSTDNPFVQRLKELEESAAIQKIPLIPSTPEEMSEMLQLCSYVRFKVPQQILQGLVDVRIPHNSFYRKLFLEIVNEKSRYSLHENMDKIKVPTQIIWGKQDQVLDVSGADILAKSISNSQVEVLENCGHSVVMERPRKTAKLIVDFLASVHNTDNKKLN
Another series can be described thus: Water solubility. The format is physicochemical. Conditions: distilled water, room temperature. The protocol:
6.9 software. Chromatographic separation was obtained using a Kinetex C18 column (150 × 4.6 mm) with a 5 μm particle size and gradient elution with a binary solution; (eluent A: ACN, eluent B: water, both eluents were acidified with formic acid 0.1% v/v). The analysis started with 5% of A (from t = 0 to t = 1 min), then A was increased to 95% (from t = 1 to t = 10 min), then kept at 95% (from t = 10 to t = 19 min), and finally returned to 5% of eluent A in 1.0 min. The flow rate was 0.6 mL/min, and injection volumes were 10 μL. The instrument operated in positive mode, and parameters were detector 1450 V, drying gas pressure 35.0 psi, desolvation temperature 300.0 °C, nebulizing gas 45.0 psi, needle 5550 V and shield 350 V. Nitrogen was used as a nebulizer gas and drying gas. Collision-induced dissociation was performed using argon as the collision gas at a pressure of 1.8 mTorr in the collision cell. The transitions as well as the capillary voltage and the collision energy used are appropriated for each tested compound. Quantification of the single compound was made by comparison with appropriate calibration curves realized with standard solutions in methanol. LC analyses of PAMPA, metabolic stability, and stability tests (in MeOH, PBS, human plasma) were performed by UV/LC–MS with an Agilent 1100 LC/MSD VL system ((G1946C) Agilent Technologies, Palo Alto, CA) using a Phenomenex Kinetex C18–100 Å (150 × 4.6 mm, 5 μm particle size) at room temperature. Analyses were carried out with the same chromatographic conditions reported above.
Each sample was mixed at room temperature in a shaker water bath for 24 h.[62] The resulting suspension was filtered through a 0.45 μm nylon filter (Acrodisc), and the solubilized compound was quantified in triplicate using the LC–MS/MS method reported above, by comparison with the appropriate calibration curve that was obtained from samples of the compound dissolved in methanol at different concentrations.

Series [5] concerns active caspase-3 in PDAC2 cells. Briefly: Active caspase-3 immunoassay, PDAC2. The format is cell-based, human. Conditions: untreated 0.35.
A further series has as its system Bcl-2. Briefly: qRT-PCR gene expression, Bcl-2. Conditions: 5× IC50, 24 h, compared to untreated cells. The format is cell-based. The protocol:
To elucidate the previous data on apoptosis and migration and the mechanism of interaction, further studies focused on several potential cellular determinants and effectors of drug activities, such as the anti-apoptotic factor Bcl-2, the key matrix metalloproteinase 9 (MMP9), which promotes cell migration, and the main gemcitabine transporter, the human equilibrative nucleoside transporter 1 (hENT1).
Real-time quantitative reverse transcription PCR (qRT-PCR) was performed to evaluate the gene expression of MMP9, BCL-2, BCL-x, and hENT1, using β-actin, and GAPDH as housekeeping genes. […] Total RNA was extracted using the TRIzol Reagent (15596–026, ThermoFisher Scientific, Waltham, MA) according to the manufacturer’s protocol. One microgram of RNA was reverse transcribed using first-strand cDNA synthesis (First Strand cDNA Synthesis Kit; ThermoFisher #K1612) on a Bio-Rad machine C100 Thermal Cycler. Real-time qPCR quantification was performed using specific TaqMan detection probes and primers (TaqMan Universal PCR Master Mix #4304437; Thermo Fisher Scientific, USA) with the ABIPRISM-7500 instrument (Applied Biosystems, Foster City, CA), as described previously.[60] Data obtained were analyzed according to the 2^–ΔΔCt method.

Like-named read-outs stand apart in the source and are kept apart here.

For the compound `O=C(c1cc(O)ccc1F)N1CCC(Cc2cccc(Oc3cc(C(F)(F)F)ccn3)c2)CC1` [Compound 13, (2-Fluoro-5-hydroxyphenyl)(4-(3-((4-(trifluoromethyl)pyridin-2-yl)oxy)benzyl)piperidin-1-yl)methanone], the IC50 in series [1] was 12.6 µM; in series [2] (Homo sapiens, read-out: IC50 antiproliferative activity) it was > 20 µM. The compound further yielded a scratch area closed with PDAC3 cells of 38 ± 6%. Besides, the IC50 antiproliferative activity result in series [2] is reported as “not sensitive”. On FAAH, the “TAMRA-FP labelling of FAAH band (ABPP)” value is “without affecting”. For the same compound, the stability human plasma in series [3] is >24 h. Further, the “levels of active caspase-3” value in series [4] is recorded as “significantly higher levels of active caspase-3”; in [5] it was 1.12 ng/mL. Moreover, on ABHD6, the “TAMRA-FP labelling of ABHD6 band (ABPP)” value is on record as “without affecting”. Moreover, the solubility at 24 h in “Water solubility” (read-out: water solubility) is < 1 ng/mL; in the series “Water solubility” (read-out: water solubility (logS)), < 2.11 nM. Also, the Bcl-2 gene expression entry in the series with Bcl-2 was “slight reduction”.
